Measured values as given in patent publication US20080161404A1 (ASTRAZENECA AB, priority 2005, published 2008).
Several values for one entry are separate records, joined by “and”; a condition that tells them apart may be missing. Identical values can stand only once. Like-named read-outs stand apart in the source and are kept apart here.

How the values were obtained:
[1] = Clinical pharmacokinetics of (R)-bicalutamide (Css, t1/2) in prostate cancer patients given bicalutamide 300-600 mg once daily (Example 1); format: in vivo, human; conditions: for Steady state plasma conc. geometric mean: (R)-bicalutamide
Experimental: Plasma samples were stored at −20° C. until analysis. […] Quantification of the enantiomers was achieved using ultra-violet absorbance.
Method: Assays were performed using 0.5 ml plasma aliquots. […] A further control compound (internal standard) was added to each sample, along with 1.5 ml of pH 7 0.05M phosphate buffer (Electronic Instruments Ltd.) and 6 mls of ethyl acetate. The samples were mixed and then centrifuged and a 5 ml aliquot of the ethyl acetate layer (upper layer) was removed and evaporated to dryness in a polypropylene tube. The residue was re-dissolved in 400 μl of water:acetonitrile (70:30 v/v).
The fraction was evaporated to dryness and reconstituted in 400 μl of an HPLC eluent; 0.02 M pH 7 phosphate buffer; acetonitrile (85:15 v/v). 200 μl of the reconstituted fraction was then injected onto the chiral chromatographic system.

serum PSA levels = assay: Change in serum PSA levels in M0/M1 prostate cancer patients (Example 1); format: in vivo, human
Experimental: Patients had histologically or cytologically confirmed M0 (T3 or T4) or M1 prostate cancer and a PSA level ≧20 ng/mL.

[2] = cited from earlier work
[3] = test system: advanced prostate cancer (M0 or M1); assay: Survival (Kaplan-Meier time to death) versus castration in patients with advanced prostate cancer (Example 1); conditions: 450-600 mg
Method: Tolerability was similarly assessed at 450 mg/day (3 tablets) and 600 mg/day (4 tablets).
After objective disease progression, patients were followed up every 3 months for survival and/or adverse event data.
Results are presented as for both the overall patient population and also by disease stage (M0 or M1).

| Compound | Steady state plasma conc. geometric mean ([1]; 300 mg once daily, 18 patients) [µg/mL] | Steady state plasma conc. geometric mean ([1]; 450 mg once daily, 82 patients) [µg/mL] | Steady state plasma conc. geometric mean ([1]; 600 mg once daily, 34 patients) [µg/mL] | plasma concentration of (R)-bicalutamide higher than with bicalutamide 150 mg ([1]; doses ≥300 mg vs 150 mg (21.6 μg/mL)) | plasma concentration of (R)-bicalutamide higher than with bicalutamide 200 mg ([1]; doses ≥300 mg vs 200 mg (28.9 μg/mL)) | mean steady state plasma concentration of R-bicalutamide ([1]; patients, conventional tablets, doses of 300 mg/day and above (300-600 mg)) [µg/mL] | percentage decrease in PSA (serum PSA levels; Week 12, bicalutamide 300 mg) [%] | percentage decrease in PSA (serum PSA levels; Week 12, bicalutamide 450 mg) [%] | percentage decrease in PSA (serum PSA levels; Week 12, bicalutamide 600 mg) [%] | percentage reduction in geometric mean PSA compared with castration group (serum PSA levels; baseline to Week 4) | t1/2 of (R)-bicalutamide ([2]; bicalutamide doses of 10-200 mg) [h] | mean steady state plasma concentration of R-bicalutamide ([2]; patients, 150 mg daily) | plasma concentration of (R)-bicalutamide (Css) ([2]; patients, bicalutamide 200 mg) [ng/mL] | events (deaths), share of patients ([3]; M0 patients, 28/74) [%] | events (deaths), share of patients ([3]; M1 patients, 43/63) [%] | events (deaths), share of patients ([3]; all patients, median 5 years follow up, 71/137) [%] | share of the total circulating enantiomers at steady state ([2]; steady state) |
| --- | --- | --- | --- | --- | --- | --- | --- | --- | --- | --- | --- | --- | --- | --- | --- | --- | --- |
| 4′-cyano-α′,α′,α′-trifluoro-3-(4-fluorophenylsulphonyl)-2-hydroxy-2-methylpropiono-m-toluidide [Bicalutamide] | 35 | 31 | 36 | approximately 50% | approximately 15% | 31 to 36 | 93 | 95 | 96 | greater percentage reductions in geometric mean PSA values | 150 to 213 | 21.6 µg/mL and 21 µg/mL | 28900 | 37.8 | 68.3 | 51.8 |  |
| C[C@](O)(CS(=O)(=O)c1ccc(F)cc1)C(=O)Nc1ccc(C#N)c(C(F)(F)F)c1 [R-Bicalutamide] |  |  |  |  |  |  |  |  |  |  |  |  |  |  |  |  | approximately 99% |
